# Test results: patent US10864296B2, “Polypeptide and hyaluronic acid coatings” (INSTITUT NATIONAL DE LA SANTE ET DE LA RECHERCHE MEDICALE …, priority 2017, dated 2020)
# “And” between values parts separate entries of the source, which are not always exact repeats. Equal entries are not always repeated.
# What was measured:
# S. aureus [1] = settings: Adv. Funct. Mater. 2013, 23, 4801-4809; cited from earlier work
# S. aureus [2] = test: Minimal inhibitory concentration (MIC) of PAR in solution, 24 h in MHB medium with S. aureus; assay type: cell-based, Staphylococcus aureus; settings: for times less active than PAR100 or PAR200 chains (from MICs in solution): per chain; for bacterial growth inhibition in solution: PAR 1 μM
# Experimental: PAR with 10, 30, 100 or 200 arginine residues per chain were tested. Each PAR was incubated 24 h at 37° C. in 300 μL of MHB medium with S. aureus (A620=0.001). Pathogen growth of 0% corresponds to medium with antibiotics (and without PAR) and 100% to medium without PAR. Each value corresponds to the mean value of 3 individual experiments (3 samples per experiment and condition) and error bars correspond to standard deviations. For each concentration, the first column represents the normalized pathogen growth of S. aureus for PAR10, the 2nd column for PAR30, the third column for PAR100 and the fourth for PAR200.
# Staphylococcus aureus (S. aureus, ATCC 25923) strains were used to assess the antibacterial properties of the test samples. Bacterial strain was cultured aerobically at 37° C. in a Mueller Hinton Broth (MHB) medium (Merck, Germany), pH 7.4. One colony was transferred to 10 mL of MHB medium and incubated at 37° C. for 20 h, to provide a final density of 10^6 CFU·mL^−1. To obtain bacteria in the mid logarithmic phase of growth, the absorbance at 620 nm of overnight culture was adjusted of 0.001.
# In the following the inventors of the present invention wanted to further elucidate the underlying mechanism that confer to the coatings of the invention the strong inhibitory property on the surface and in the supernatant. As an example the (PAR30/HA)24 coating was further investigated. Accordingly, the minimal inhibitory concentration (MIC) of PAR in solution was determined using bacterial assay as described in Experimental Section. […] Finally for PAR at concentrations of 0.01 mg·mL^−1, inhibition of 100% was shown only for PAR30. Longer or shorter PAR chains (PAR10, PAR100 or PAR200) inhibits only partially (less than 40%) S. aureus growth. […] This reasoning is valid when PAR concentration values are expressed in mass (mg·mL^−1) thus it is related to the number of arginine monomers. However when the graph is plotted with concentrations in μM (and thus proportional in number of chains), which means that concentration is related to number of chains, different interpretation can be made (Data not shown). […] Moreover the MIC100 values obtained for PAR30, PAR100 or PAR200 ranges at very low concentrations (between 1 and 2 μM) which is remarkable when compared to well-known antimicrobial peptides (for example 30 μM for cateslytin with S. aureus, see Adv. Funct. Mater. 2013, 23, 4801-4809). PAR is thus a powerful candidate to fight against S. aureus.
# [3] = Fluorescence recovery after photobleaching (FRAP) of PAR-FITC in (PAR/HA)24 multilayers; assay type: physicochemical; settings: PAR-FITC in (PAR/HA)24 multilayer, hydrochloride
# Experimental: The diffusion coefficient, D, and the proportion of mobile molecules, p, was measured for (PAR/HA)24 multilayers containing PAR-FITC by performing photobleaching experiments (FRAP, Fluorescence Recovery After Photobleaching).
# A glass slide coated with the multilayer was introduced in a home-made sample holder and immerged in 200 μl of Tris-NaCl buffer. One circular regions (4.4 μm in radius and referred as “R4” in an image of 35 μm×35 μm or 10.6 μm in radius and referred as “R10” in an image of 85 μm×85 μm) were exposed for 700 msec to the laser light set at its maximum power (λ=488 nm). Then, the recovery of the fluorescence in the bleached area was observed over time. Observations were carried out with a Zeiss LSM 710 microscope (Heidelberg, Germany) using a 20× objective (Zeiss, Plan Apochromat).
# Then the inventors investigated if the bactericidal activity of the PAR30/HA multilayer is related to the mobility of these chains in the films. Indeed, it is known that the exponential character of a multilayer is related to the diffusion ability of at least one of its constituents in and out of the film during each deposition step. They first determined the mobility of the different chains, PAR10, PAR30, PAR100 and PAR200 in the (PAR/HA)24 multilayer by using FRAP method. […] Recovery of fluorescence appears very fast for PAR10 and PAR30 compare to PAR100 or PAR200. From these curves we can deduce the percentage of mobile chains over the timescale of the experiments. It clearly appears that PAR10 and PAR30 chains are more mobile (between 85 to 90% of mobile fraction) than the PAR100 (only 63% of mobile fraction). The largest chains PAR200 correspond to the slowest with about 12% of the population which is mobile (FIG. 8). Accordingly, the fraction of mobile chains dramatically decreases when the chain length increases from 30 to 100 or 200 residues.
# [4] = Release of PAR-FITC from (PAR30/HA)24 into the supernatant; assay type: physicochemical; settings: after 24 h, from (PAR30/HA)24 built with PAR-FITC, 37° C.
# Experimental: For the first experiment, a multilayer coating (PAR30/HA)24 was built by using PAR-FITC. Release experiments were performed at 37° C. during 24 h in presence of MHB medium or a S. aureus/MHB solution (A620=0.001). 300 μL of mineral oil were added on the top of the supernatant to prevent any evaporation during the monitoring. The release of PAR-FITC in solution was performed by measuring the fluorescence of the supernatant over time with a spectrofluorimeter (SAFAS Genius XC spectrofluorimeter, Monaco) with excitation/emission wavelength of 488/517 nm. Three samples were studied for each conditions.
# In view of the absence of specific properties of PAR30 in solution compared to shorter or longer PAR chains, the antimicrobial abilities of PAR30/HA films should be related to the film property by itself. In this context, the inventors investigated if the bactericidal property of the film is due to the release of PAR30 chains from the multilayer into the solution or if bacteria need to come in contact with the film to be killed. For this purpose two types of experiments were performed. Using fluorescently labelled PAR30 chains we first determined the release of PAR30 chains into the solution containing solely MH medium with and without S. aureus. […] Finally, we also performed an experiment where bacteria were brought in contact with a (PAR30/HA)24 film for 24 hours. […]
# [5] = PAR concentrations up to 0.04 mg·mL^−1
Substance,"MIC of a well-known antimicrobial peptide, compared with MIC100 of PAR (S. aureus [1])",S. aureus growth inhibition in solution (in words) (S. aureus [2]; PAR 0.02 mg·mL^−1),S. aureus growth inhibition in solution (in words) (S. aureus [2]; [5]),"concentration needed for a similar effect (about 90% inhibition) (S. aureus [2]; in solution, S. aureus)",times less active than PAR100 or PAR200 chains (from MICs in solution) (S. aureus [2]; hydrochloride),proportion of mobile PAR chains (mobile fraction) [3],"S. aureus growth inhibition in solution (S. aureus [2]; PAR 0.01 mg·mL^−1, hydrochloride)","MIC90 (S. aureus [2]; in solution, S. aureus)",PAR30 released into solution [4],bacterial growth inhibition in solution (S. aureus [2]),S. aureus growth inhibition in solution (S. aureus [2]; PAR 0.02 mg·mL^−1)
cateslytin,30 µM,,,,,,,,,,
poly(I-arginine hydrochloride) [PAR10],,quasi total inhibition,totally inhibited,about 10 μM,10 times,~90%,,,,,
poly(I-arginine hydrochloride) [PAR30],,quasi total inhibition,totally inhibited,about 10 μM,2 times,,100%,about 2 μM,about 0.18 μM,,
poly(I-arginine hydrochloride) [PAR100],,quasi total inhibition,totally inhibited,,,63% and 70%,,,,about 90%,
poly(I-arginine hydrochloride) [PAR200],,,totally inhibited,,,about 12%,,,,about 90%,about 45%
